Measurements reported in PMC8645336, “Benchmarking a highly selective USP30 inhibitor for enhancement of mitophagy and pexophagy” (Life Science Alliance, 2021).

Columns and labels:
Experiment in all cases: biochemical
Parameters in all cases: Ubiquigent DUB profiler selectivity panel, remaining enzyme activity as % of control
Conditions in all cases: read-out: % of control remaining
USP45 = biological target: T1, USP45 (Homo sapiens, UniProt Q70EL2)
T1 sequence (Q70EL2 1-814): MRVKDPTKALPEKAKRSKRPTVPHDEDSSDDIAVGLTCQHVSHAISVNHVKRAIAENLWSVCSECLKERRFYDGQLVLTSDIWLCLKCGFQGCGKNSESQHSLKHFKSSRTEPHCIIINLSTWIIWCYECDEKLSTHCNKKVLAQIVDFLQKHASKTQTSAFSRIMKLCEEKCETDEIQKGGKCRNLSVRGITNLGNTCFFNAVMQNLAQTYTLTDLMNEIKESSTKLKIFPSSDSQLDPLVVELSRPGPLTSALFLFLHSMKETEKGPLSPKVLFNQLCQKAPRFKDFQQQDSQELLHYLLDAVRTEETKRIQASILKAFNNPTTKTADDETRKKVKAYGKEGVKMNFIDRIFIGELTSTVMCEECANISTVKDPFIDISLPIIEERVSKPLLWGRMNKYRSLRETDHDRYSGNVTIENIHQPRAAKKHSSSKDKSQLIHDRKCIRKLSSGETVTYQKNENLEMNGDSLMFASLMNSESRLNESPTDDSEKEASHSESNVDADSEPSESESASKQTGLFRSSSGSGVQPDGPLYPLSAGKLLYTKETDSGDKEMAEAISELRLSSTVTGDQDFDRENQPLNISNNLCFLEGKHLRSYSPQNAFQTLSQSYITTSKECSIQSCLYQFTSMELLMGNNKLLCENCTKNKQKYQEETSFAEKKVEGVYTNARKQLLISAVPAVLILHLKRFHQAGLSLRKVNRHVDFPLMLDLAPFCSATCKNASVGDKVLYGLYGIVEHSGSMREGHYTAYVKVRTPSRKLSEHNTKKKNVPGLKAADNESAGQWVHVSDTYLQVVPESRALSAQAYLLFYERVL
Outline: (§1)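 In YFP-PRKN-overexpressing hTERT-RPE1 cells, 1 h antimycin A plus oligomycin A (1 μM each) with CMPD-39, then Western blot of TOMM20 ubiquitylation. Target engagement: 2 h compound, then 10 min HA-Ub-PA at 37°C, read as USP30 shift. DUB panel (>40 enzymes) screened at 1-100 μM.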

UCHL1 = biological target: T2, UCHL1 (Homo sapiens, UniProt P09936)
T2 sequence (P09936 1-223): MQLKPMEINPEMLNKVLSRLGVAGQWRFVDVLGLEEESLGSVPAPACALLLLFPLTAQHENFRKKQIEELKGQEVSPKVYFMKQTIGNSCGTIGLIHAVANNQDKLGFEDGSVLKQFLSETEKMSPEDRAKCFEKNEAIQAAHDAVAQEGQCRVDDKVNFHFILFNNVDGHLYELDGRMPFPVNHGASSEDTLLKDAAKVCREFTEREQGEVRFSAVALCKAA
Outline: as §1

USP17 = biological target: T3, USP17 (Homo sapiens, UniProt Q6R6M4)
T3 construct: gene USP17L2
T3 sequence (Q6R6M4 1-530): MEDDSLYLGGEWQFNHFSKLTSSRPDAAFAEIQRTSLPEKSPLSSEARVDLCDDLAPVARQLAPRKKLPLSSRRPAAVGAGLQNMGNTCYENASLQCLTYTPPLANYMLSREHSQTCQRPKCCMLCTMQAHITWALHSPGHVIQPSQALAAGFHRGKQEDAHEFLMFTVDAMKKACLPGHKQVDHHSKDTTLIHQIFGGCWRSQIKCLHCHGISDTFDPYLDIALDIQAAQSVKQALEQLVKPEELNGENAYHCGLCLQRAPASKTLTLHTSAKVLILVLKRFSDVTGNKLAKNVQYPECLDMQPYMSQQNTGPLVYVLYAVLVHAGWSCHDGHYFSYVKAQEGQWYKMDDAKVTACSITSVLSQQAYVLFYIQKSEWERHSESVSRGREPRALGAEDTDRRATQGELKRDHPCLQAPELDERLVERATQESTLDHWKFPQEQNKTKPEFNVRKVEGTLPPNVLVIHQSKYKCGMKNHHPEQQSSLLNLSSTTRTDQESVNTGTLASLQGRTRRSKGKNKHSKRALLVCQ
Outline: as §1

remaining activity at 1 µM (USP45): 98.8%
remaining activity at 10 µM (USP45): 95%
remaining activity at 100 µM (USP45): 100%
remaining activity at 1 µM (UCHL1): 103%
remaining activity at 10 µM (UCHL1): 98.5%
remaining activity at 100 µM (UCHL1): 96.3%
remaining activity at 1 µM (USP17): 110%
remaining activity at 10 µM (USP17): 119%
remaining activity at 100 µM (USP17): 102%
Structure (SMILES): CC(C)(C)NS(=O)(=O)c1ccc(NC(=O)[C@H](Cc2ccccc2)NC(=O)c2ccc(F)cc2)cc1 [compound 39, CMPD-39]
